{"source": "patent US20150174158A1", "about": "“[…] NITRIC OXIDE FOR TREATING RESPIRATORY DISEASES” (Advanced Inhalation Therapies (AIT) Ltd., priority 2012, published 2015)", "key": {"[1]": {"test_system": "broad range of microbes", "details": "gNO at 160-200 ppm; in vitro, ex vivo and in animal models; cited from earlier work"}, "[2]": {"experiment": "Phase I safety study: pulmonary function tests", "type": "in vivo, human", "method": "(§1) After obtaining informed consent, treatment was initiated within 5 days of enrollment. Subjects were housed in a hospital ward and received 160 ppm gNO for 30 minutes every four hours (Q4h), five times a day, for five consecutive days by inhalation. Subjects returned for follow-up evaluations 3, 7 and 21 days after the final gNO administration. Subject safety was determined by monitoring vital signs, methemoglobin levels, lung function, blood chemistry, hematology, prothrombin time, inflammatory cytokine/chemokines levels and endothelial activation. These parameters were compared to baseline and at various time-points during and after gNO administration.\nSubjects underwent full pulmonary function tests (PFT), including lung diffusing capacity (DLCO) by a trained technician utilizing a calibrated pulmonary function system (Jaeger MasterScreen, VIASYS Healthcare, USA) on screening and days 2, 8, 12 and 26. Spirometry test (Microloop by Micro Medical, England) was performed on days 1, 3 and 4. Effect of gNO on lung function and DLCO was determined by changes from baseline, treatment days and follow up days. […]"}, "[3]": {"test_system": "Pseudomonas aeruginosa pneumonia", "details": "160 ppm gNO, intermittent 30 minute exposures; cited from earlier work"}, "[4]": {"experiment": "Phase I safety study: serum nitrite/nitrate by Griess reagent", "type": "in vivo, human", "details": "160 ppm gNO 30 min, 5 times a day, 5 days", "method": "as §1\n(§2) These parameters were measured continuously during every gNO administration course and for 3.5 hours after the first treatment of the day. Daily serum samples were collected and frozen at −80° C. and the serum […] level was measured using the Griess reagent."}, "[5]": {"test_system": "all microorganisms tested", "details": "200 ppm gNO, cited from earlier work"}, "[6]": {"test_system": "P. aeruginosa (ATCC)", "details": "200 ppm gNO; saline; cited from earlier work"}, "[7]": {"test_system": "MRSA", "details": "200 ppm gNO; saline; cited from earlier work"}, "[8]": {"test_system": "Enterobacter sp.", "details": "200 ppm gNO; saline; cited from earlier work"}, "[9]": {"test_system": "highly pathogenic Avian Influenza H7N3", "details": "cited from earlier work"}, "[10]": {"details": "gNO concentrations below 200 ppm, 6 hours/day for 28 days; cited from earlier work"}, "[11]": {"details": "continuous delivery of 80 ppm; cited from earlier work"}, "[12]": {"test_system": "methemoglobin (SpMet)", "experiment": "Phase I safety study: methemoglobin (SpMet) by pulse oximeter", "type": "in vivo, human", "method": "as §1\nThe levels of gNO, NO2, O2 and methemoglobin were monitored during the administration of gNO. The target gas mixture was 160 ppm gNO with a nitrogen dioxide (NO2) level of less than 5 ppm and an oxygen (O2) level ranging from 21% to 25%. Inspiratory NO, NO2 and O2 levels were continuously monitored by sampling from the mouthpiece sample port located about 6 millimeters from the mouth of the subject with an AeroNOx (Pulmonox, AB, Canada) NO, NO2 and O2 electrochemical analyzer. Delivery safety was determined by the number of occasions that NO2 exceeded 5 ppm, gNO exceeding 10% variation and O2 dropping below 20% during gNO administration. A commercially available noninvasive pulse oximeter (Rad 57, Masimo Corporation, USA) was used to measure saturation levels at the periphery of methemoglobin (SpMet).\nas §2\nFIGS. 4A-B present results of monitoring methemoglobin levels before, during and after inhalation of 160 ppm of gaseous nitric oxide by 10 healthy human individuals, undergone 5 gNO administration courses daily, each lasting 30 minutes, for 5 consecutive days, while methemoglobin levels were measured using a pulse oximeter, wherein FIG. 4A is a plot of methemoglobin levels by percents as a function of time as measured before (time point 0), during 250 individual 30 minutes gNO administration courses (time interval of 0 to 30 minutes), after the courses (time interval of 30 to 60 minutes) and at 120 minutes, 180 minutes and 240 minutes after gNO administration was discontinued, and FIG. 4B is a plot of methemoglobin levels by percents as a function of time as measured at the beginning and end of 30 minutes gNO administration courses given over the course of 5 days, and followed 8, 12 and 26 days after gNO administration was discontinued."}, "[13]": {"test_system": "five planktonic species of methicillin resistant S. aureous (MRSA)", "details": "1,600 ppm hours of gNO; cited from earlier work"}, "[14]": {"test_system": "S. maltophilia", "details": "200 ppm gNO; saline; cited from earlier work"}, "[15]": {"test_system": "S. aureus (ATCC)", "details": "200 ppm gNO; saline; cited from earlier work"}}}
{"smiles": "[N]=O", "note": "[gNO, nitric oxide]", "values": [{"measurement": "antimicrobial effects", "setting": "[1]", "result": "potent antimicrobial effects"}, {"measurement": "pulmonary function tests, abnormalities", "setting": "[2]; during and after gNO administration", "result": "did not reveal any abnormalities"}, {"measurement": "DLCO, FVC, TLC and RV", "setting": "[2]; vs baseline", "result": "did not change from baseline"}, {"measurement": "FEV1 and maximum mid-expiratory flow (MMEF)", "setting": "[2]; vs baseline during the course of the study", "result": "did not differ from baseline"}, {"measurement": "pulmonary bioburden and leukocyte infiltration", "setting": "[3]", "result": "effective to reduce the pulmonary bioburden and leukocyte infiltration"}, {"measurement": "serum nitrite/nitrate levels vs baseline", "setting": "[4]", "result": "no significant differences"}, {"measurement": "bactericidal effect", "setting": "[5]; all microorganisms tested", "result": "complete bactericidal effect"}, {"measurement": "reduction in CFU/mL", "setting": "[5]; every bacteria challenged", "result": "≥ 3", "unit": "login CFU/mL"}, {"measurement": "LD100", "setting": "[6]", "result": 3, "unit": "h"}, {"measurement": "Latent Period", "setting": "[6]", "result": 1, "unit": "h"}, {"measurement": "−2.5 Log10", "setting": "[6]", "result": 2.1, "unit": "hours"}, {"measurement": "LD100", "setting": "[7]", "result": 5, "unit": "h"}, {"measurement": "Latent Period", "setting": "[7]", "result": 3, "unit": "h"}, {"measurement": "−2.5 Log10", "setting": "[7]", "result": 4.2, "unit": "hours"}, {"measurement": "LD100", "setting": "[8]", "result": 6, "unit": "h"}, {"measurement": "Latent Period", "setting": "[8]", "result": 4, "unit": "h"}, {"measurement": "−2.5 Log10", "setting": "[8]", "result": 5.3, "unit": "hours"}, {"measurement": "infectivity (plaque formation)", "setting": "[9]", "result": "capable of reducing the infectivity"}, {"measurement": "deaths", "setting": "[10]", "result": "No deaths occurred"}, {"measurement": "NO2 level", "setting": "[11]", "result": 2.6, "unit": "ppm"}, {"measurement": "residual increase in SpMet at follow-up", "setting": "[12]; 3, 7 and 21 days after final exposure", "result": "did not show any residual increase"}, {"measurement": "time for SpMet to return to baseline", "setting": "[12]; after 30 min 160 ppm gNO", "result": 3.5, "unit": "h"}, {"measurement": "highest SpMet", "setting": "[12]; end of the 30 minutes treatment, 160 ppm gNO, baseline 0.16 (SD=0.10)", "result": 2.5, "unit": "%"}, {"measurement": "accumulative effect on SpMet", "setting": "[12]; five daily treatments for five consecutive days", "result": "no accumulative or lingering effect"}, {"measurement": "average increase of SpMet", "setting": "[12]; single 30 min treatment course, 160 ppm gNO, SD=0.08", "result": 0.9, "unit": "%"}, {"measurement": "population of planktonic MRSA strains", "setting": "[13]", "result": "A reduction in the population"}, {"measurement": "LD100", "setting": "[14]", "result": 4, "unit": "h"}, {"measurement": "Latent Period", "setting": "[14]", "result": 2, "unit": "h"}, {"measurement": "−2.5 Log10", "setting": "[14]", "result": 2.8, "unit": "hours"}, {"measurement": "LD100", "setting": "[15]", "result": 4, "unit": "h"}, {"measurement": "Latent Period", "setting": "[15]", "result": 3, "unit": "h"}, {"measurement": "−2.5 Log10", "setting": "[15]", "result": 3.3, "unit": "hours"}]}
